Here are results for 5 compounds from ChEMBL document CHEMBL1143112, “Three-component, one-pot synthesis of novel 2,4-substituted 5-azolylthiopyrimidine library for screening against anti-influenza virus A” (Bioorg Med Chem Lett, 2008).

In brackets after ≈: the same amount, converted by molar mass.

The term CC50 denotes the concentration that lowers cell viability or growth by half. Lower therefore signals greater toxicity to the cells. The term IC50 denotes the concentration that inhibits the measured activity by half.

Data set [1] can be described thus: Selectivity index, CC50 for dog MDCK cells to IC50 for influenza A virus H3N2. In kind it is functional.
Data set [2] can be described thus: Cytotoxicity against dog MDCK cells. It is filed as cell-based, Canis lupus familiaris.
The next data set relates to Influenza B virus. The data set can be described thus: Antiviral activity against influenza B virus expressed in dog MDCK cells assessed as reduction of virus-induced cytopathic effect. In kind it is functional, organism-based. In general terms: Protection from cytopathic effect is a common read-out in antiviral testing.

Regarding `Cn1ccnc1Sc1cnc(C(C)(C)C)nc1-c1ccccc1O`, in data set [1], the Selectivity index is given as 9. In the case of `CC(C)(C)c1nccc(-c2ccccc2O)n1`, the CC50 in data set [2] worked out at 16200 µg/mL (≈ 71.2 mM). On to `CC(C)(C)c1ncc(Sc2nc[nH]n2)c(-c2cc(Cl)ccc2O)n1`, for which the midpoint of cytotoxicity in data set [2], the CC50, lay at 9580 µg/mL (≈ 26.5 mM). In turn, `COc1ccc(O)c(-c2nc(SC)ncc2Sc2nccn2C)c1` returned a CC50 in data set [2] of 7190 µg/mL (≈ 19.9 mM). As for `NC(=O)c1ncn([C@@H]2O[C@H](CO)[C@@H](O)[C@H]2O)n1` [RIBAVIRIN], in the data set with Influenza B virus, the IC50 was found to be 4270 µg/mL (≈ 17.5 mM).
